Laboratory results taken from patent US12077503B2, “Substituted cyclic amides and their use as herbicides” (FMC CORPORATION, priority 2015, dated 2024).

Tests used:
Format in all cases: in vivo
[1] = test system: ragweed (common ragweed, Ambrosia elatior); test: Test A postemergence
In short: (§1)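 Greenhouse, ~10 d after spray; visual injury vs untreated controls, 0 = no effect, 100 = complete control. Preemergence: directed soil spray over planted seeds. Postemergence: plants 2–10 cm, 1–2 leaf stage. Loam/sand blend. Compound in non-phytotoxic solvent with surfactant.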

[2] = test system: pigweed (Amaranthus retroflexus); test: Test A postemergence
In short: as §1

corn (Zea mays) = test: Test A postemergence
In short: as §1

[3] = test system: giant foxtail (Setaria faberii); test: Test A postemergence
In short: as §1

[4] = test system: Galium (catchweed bedstraw, Galium aparine); test: Test A postemergence
In short: as §1

[5] = test system: ryegrass, Italian (Italian ryegrass, Lolium multiflorum); test: Test A postemergence
In short: as §1

Kochia (Kochia scoparia) [6] = test: Test A postemergence
In short: as §1

[7] = test system: barnyardgrass (Echinochloa crus-galli); test: Test A postemergence
In short: as §1

[8] = test system: wheat (Triticum aestivum); test: Test A postemergence
In short: as §1

[9] = test system: blackgrass (Alopecurus myosuroides); test: Test A postemergence
In short: as §1

[10] = test system: ragweed (common ragweed, Ambrosia elatior); test: Test A preemergence
In short: as §1

[11] = test system: pigweed (Amaranthus retroflexus); test: Test A preemergence
[12] = test system: giant foxtail (Setaria faberii); test: Test A preemergence
In short: as §1

[13] = test system: ryegrass, Italian (Italian ryegrass, Lolium multiflorum); test: Test A preemergence
In short: as §1

Kochia (Kochia scoparia) [14] = test: Test A preemergence
In short: as §1

[15] = test system: barnyardgrass (Echinochloa crus-galli); test: Test A preemergence
In short: as §1

[16] = test system: ducksalad (Heteranthera limosa); test: Test B flooded paddy test; settings: Flood, 250 g ai/ha; 0 to 100 scale where 0 is no effect and 100 is complete control; 13 to 15 d
In short: (§2)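 Evaluation by eye, against controls, occurred 13–15 d post-treatment in a greenhouse, using a 0 (no effect) to 100 (complete control) scale. Application was into the paddy water, 3 cm deep over the soil, on 2-leaf plants.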

rice (Oryra sativa) = test: Test B flooded paddy test; settings: Flood, 250 g ai/ha; 0 to 100 scale where 0 is no effect and 100 is complete control; 13 to 15 d
In short: as §2

[17] = test system: sedge, umbrella (small-flower umbrella sedge, Cyperus difformis); test: Test B flooded paddy test; settings: Flood, 250 g ai/ha; 0 to 100 scale where 0 is no effect and 100 is complete control; 13 to 15 d
In short: as §2

[18] = test system: barnyardgrass (Echinochloa crus-galli); test: Test B flooded paddy test; settings: Flood, 250 g ai/ha; 0 to 100 scale where 0 is no effect and 100 is complete control; 13 to 15 d
In short: as §2

[19] = 125 g ai/ha, postemergence, visual injury rating on 0 to 100 scale (0 no effect, 100 complete control), approx. 10 d
[20] = 500 g ai/ha, postemergence, 0 to 100 scale, 0 no effect, 100 complete control
[21] = 125 g ai/ha, preemergence, 0 to 100 scale (0 no effect, 100 complete control)
[22] = Preemergence, 500 g ai/ha, visual injury approx. 10 d
[23] = 125 g ai/ha, postemergence, visual rating after approx. 10 d, 0 to 100 scale (0 no effect, 100 complete control)
[24] = 500 g ai/ha, postemergence, visual injury, 0 to 100 scale (0 no effect, 100 complete control), approx. 10 d
[25] = 125 g ai/ha, Preemergence, visual injury after approximately 10 d, 0 to 100 scale where 0 is no effect and 100 is complete control
[26] = 500 g ai/ha, preemergence, 0 to 100 scale, 0 = no effect, 100 = complete control
[27] = Postemergence, 125 g ai/ha, visual injury, 0 to 100 scale (0 no effect, 100 complete control), approx. 10 d
[28] = Preemergence, 500 g ai/ha, 0 is no effect, 100 is complete control

Cc1cc(C2CN(C)C(=O)C2C(=O)Nc2ccc(F)cc2F)ccc1F (stereo not drawn) [Compound 404]
Ragweed plant response rating [1, 19]: 30 | Plant response rating, Ragweed [1, 20]: 50 | Pigweed plant response rating [2, 19]: 20 | Plant response rating, Pigweed [2, 20]: 60 | Corn plant response rating (corn (Zea mays); [19]): 40 | Plant response rating, Corn (corn (Zea mays); [20]): 80 | Foxtail, Giant plant response rating [3, 19]: 90 | Plant response rating, Foxtail, Giant [3, 20]: 90 | Galium plant response rating [4, 19]: 50 | Plant response rating, Galium [4, 20]: 50 | Ryegrass, Italian plant response rating [5, 19]: 40 | Plant response rating, Ryegrass, Italian [5, 20]: 70 | Kochia plant response rating (Kochia (Kochia scoparia) [6]; [19]): 60 | Plant response rating, Kochia (Kochia (Kochia scoparia) [6]; [20]): 70 | Barnyardgrass plant response rating [7, 19]: 90 | Plant response rating, Barnyardgrass [7, 20]: 90 | Wheat plant response rating [8, 19]: 50 | Plant response rating, Wheat [8, 20]: 80 | Blackgrass plant response rating [9, 19]: 40 | Plant response rating, Blackgrass [9, 20]: 60 | Plant response rating, Ragweed [10, 21]: 0 | Ragweed plant response rating (0 to 100 scale, 0 is no effect, 100 is complete control) [10, 22]: 50 | Plant response rating, Pigweed [11, 21]: 30 | Pigweed plant response rating (0 to 100 scale, 0 is no effect, 100 is complete control) [11, 22]: 60 | Plant response rating, Foxtail, Giant [12, 21]: 90 | Foxtail, Giant plant response rating (0 to 100 scale, 0 is no effect, 100 is complete control) [12, 22]: 90 | Plant response rating, Ryegrass, Italian [13, 21]: 0 | Ryegrass, Italian plant response rating (0 to 100 scale, 0 is no effect, 100 is complete control) [13, 22]: 80 | Plant response rating, Kochia (Kochia (Kochia scoparia) [14]; [21]): 60 | Kochia plant response rating (0 to 100 scale, 0 is no effect, 100 is complete control) (Kochia (Kochia scoparia) [14]; [22]): 70 | Plant response rating, Barnyardgrass [15, 21]: 90 | Barnyardgrass plant response rating (0 to 100 scale, 0 is no effect, 100 is complete control) [15, 22]: 90 | Plant response rating, Ducksalad [16]: 100 | Plant response rating, Rice (rice (Oryra sativa)): 30 | Plant response rating, Sedge, Umbrella [17]: 0 | Plant response rating, Barnyardgrass [18]: 80

Cc1ccc(C2CNC(=O)C2C(=O)Nc2cccc(F)c2F)cc1C(F)(F)F (stereo not drawn) [Compound 642]
Plant response rating, Ragweed [1, 23]: 0 | Plant response rating, Ragweed [1, 24]: 40 | Plant response rating, Pigweed [2, 23]: 0 | Plant response rating, Pigweed [2, 24]: 20 | Plant response rating, Corn (corn (Zea mays); [23]): 50 | Plant response rating, Corn (corn (Zea mays); [24]): 70 | Plant response rating, Foxtail, Giant [3, 23]: 20 | Plant response rating, Foxtail, Giant [3, 24]: 70 | Plant response rating, Galium [4, 23]: 50 | Plant response rating, Galium [4, 24]: 70 | Plant response rating, Ryegrass, Italian [5, 23]: 40 | Plant response rating, Ryegrass, Italian [5, 24]: 50 | Plant response rating, Kochia (Kochia (Kochia scoparia) [6]; [23]): 20 | Plant response rating, Kochia (Kochia (Kochia scoparia) [6]; [24]): 50 | Plant response rating, Barnyardgrass [7, 23]: 70 | Plant response rating, Barnyardgrass [7, 24]: 90 | Plant response rating, Wheat [8, 23]: 0 | Plant response rating, Wheat [8, 24]: 20 | Plant response rating, Blackgrass [9, 23]: 20 | Plant response rating, Blackgrass [9, 24]: 40 | Plant response rating, Ragweed [10, 25]: 0 | Plant response rating, Ragweed [10, 26]: 50 | Plant response rating, Pigweed [11, 25]: 50 | Plant response rating, Pigweed [11, 26]: 60 | Plant response rating, Foxtail, Giant [12, 25]: 90 | Plant response rating, Foxtail, Giant [12, 26]: 90 | Plant response rating, Ryegrass, Italian [13, 25]: 50 | Plant response rating, Ryegrass, Italian [13, 26]: 80 | Plant response rating, Kochia (Kochia (Kochia scoparia) [14]; [25]): 40 | Plant response rating, Kochia (Kochia (Kochia scoparia) [14]; [26]): 60 | Plant response rating, Barnyardgrass [15, 25]: 90 | Plant response rating, Barnyardgrass [15, 26]: 90 | Plant response rating, Ducksalad [16]: 100 | Plant response rating, Rice (rice (Oryra sativa)): 30 | Plant response rating, Sedge, Umbrella [17]: 0 | Plant response rating, Barnyardgrass [18]: 30

CCCOc1cccc(C2CNC(=O)C2C(=O)Nc2cccc(F)c2F)c1 (racemic) [Compound 380]
Plant response rating, Ragweed [1, 20]: 0 | Plant response rating, Ragweed [1, 27]: 0 | Plant response rating, Pigweed [2, 20]: 0 | Plant response rating, Pigweed [2, 27]: 0 | Plant response rating, Corn (corn (Zea mays); [20]): 0 | Plant response rating, Corn (corn (Zea mays); [27]): 0 | Plant response rating, Foxtail, Giant [3, 20]: 70 | Plant response rating, Foxtail, Giant [3, 27]: 30 | Plant response rating, Galium [4, 20]: 50 | Plant response rating, Galium [4, 27]: 20 | Plant response rating, Ryegrass, Italian [5, 20]: 0 | Plant response rating, Ryegrass, Italian [5, 27]: 0 | Plant response rating, Kochia (Kochia (Kochia scoparia) [6]; [20]): 0 | Plant response rating, Kochia (Kochia (Kochia scoparia) [6]; [27]): 0 | Plant response rating, Barnyardgrass [7, 20]: 80 | Plant response rating, Barnyardgrass [7, 27]: 50 | Plant response rating, Wheat [8, 20]: 20 | Plant response rating, Wheat [8, 27]: 0 | Plant response rating, Blackgrass [9, 20]: 40 | Plant response rating, Blackgrass [9, 27]: 30 | Plant response rating, Ragweed [10, 21]: 0 | Ragweed plant response rating (0 to 100 scale) [10, 28]: 0 | Plant response rating, Pigweed [11, 21]: 0 | Pigweed plant response rating (0 to 100 scale) [11, 28]: 30 | Plant response rating, Foxtail, Giant [12, 21]: 50 | Foxtail, Giant plant response rating (0 to 100 scale) [12, 28]: 90 | Plant response rating, Ryegrass, Italian [13, 21]: 0 | Ryegrass, Italian plant response rating (0 to 100 scale) [13, 28]: 20 | Plant response rating, Kochia (Kochia (Kochia scoparia) [14]; [21]): 0 | Kochia plant response rating (0 to 100 scale) (Kochia (Kochia scoparia) [14]; [28]): 40 | Plant response rating, Barnyardgrass [15, 21]: 70 | Barnyardgrass plant response rating (0 to 100 scale) [15, 28]: 90 | Plant response rating, Ducksalad [16]: 0 | Plant response rating, Rice (rice (Oryra sativa)): 0 | Plant response rating, Sedge, Umbrella [17]: 0 | Plant response rating, Barnyardgrass [18]: 0
